Source: patent US12692274B2, “Tetrahydroisoquinoline derivatives for the treatment of red blood disorders and inflammatory diseases” (Sanofi, priority 2020, dated 2026)
Values joined by “and” are separate entries in the source; they are usually repeats but may differ in a detail not shown here. Equal entries are not always repeated.

Tests used:
[1] = tested on: NQO1 activation in BEAS-2B cells; test: BEAS-2B cellular MTT assay of NQO1 activation, 0% HSA; assay type: cell-based
In short: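 BEAS-2B cells grown in BEBM with BEGM SingleQuots (no GA-1000), kept below 70% confluence, seeded on collagen plates at a density giving 95-100% confluence after 48 h. Plates seeded in medium without HSA (0% HSA condition).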

[2] = tested on: NQO1 activation in BEAS-2B cells; test: BEAS-2B cellular MTT assay of NQO1 activation, 0.3% HSA; assay type: cell-based
In short: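 BEAS-2B cells (<70% confluent in culture, BEBM/SingleQuots without GA-1000) seeded in collagen plates with 0.3% or 0% HSA, reaching 95-100% confluency after 48 h at 37 °C, 5% CO2; MTT read-out.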

[3] = target: HIS-Keap1 full length / Biotin-Nrf2 (16-mer) (Homo sapiens, UniProt Q14145); test: biochemical
HIS-Keap1 full length / Biotin-Nrf2 (16-mer), sequence (Q14145 whole entry): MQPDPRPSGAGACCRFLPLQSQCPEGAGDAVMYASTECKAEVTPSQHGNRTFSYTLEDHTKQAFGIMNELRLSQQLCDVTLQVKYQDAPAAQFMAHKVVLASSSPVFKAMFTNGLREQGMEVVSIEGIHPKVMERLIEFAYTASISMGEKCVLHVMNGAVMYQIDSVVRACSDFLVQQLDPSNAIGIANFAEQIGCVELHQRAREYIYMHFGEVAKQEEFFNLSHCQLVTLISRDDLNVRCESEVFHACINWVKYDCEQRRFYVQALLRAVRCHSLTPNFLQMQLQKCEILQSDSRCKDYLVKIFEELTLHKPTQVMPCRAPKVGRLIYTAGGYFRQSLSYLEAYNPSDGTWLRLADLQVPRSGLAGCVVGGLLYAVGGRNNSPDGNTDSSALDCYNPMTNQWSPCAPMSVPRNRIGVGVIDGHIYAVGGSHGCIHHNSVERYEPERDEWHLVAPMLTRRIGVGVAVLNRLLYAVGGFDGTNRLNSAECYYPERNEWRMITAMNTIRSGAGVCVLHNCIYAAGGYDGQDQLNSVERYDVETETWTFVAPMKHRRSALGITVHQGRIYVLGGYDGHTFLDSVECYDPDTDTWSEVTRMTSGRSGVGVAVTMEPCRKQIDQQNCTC

[4] = Homo sapiens, serum free, read-out: BEAS EC50 (nM) serum free
[5] = Homo sapiens, BEAS+, read-out: BEAS+ EC50
[6] = Homo sapiens, Serum Free W, read-out: BEAS EC50 (nM) Serum Free W
[7] = Serum Free W, read-out: BEAS EC50 (nM) Serum Free W
[8] = BEAS+ W, read-out: BEAS+ W EC50
[9] = Homo sapiens, BEAS+ W, read-out: BEAS+ W EC50
[10] = serum free, read-out: BEAS EC50 (nM) serum free

SMILES	EC50 [1, 4]	EC50 ([2]; BEAS+, read-out: BEAS+ EC50)	EC50 [2, 5]	IC50 [3]	EC50 [1, 6]	EC50 [1, 7]	EC50 [2, 8]	EC50 [2, 9]	EC50 [1, 10]
C[C@H](C(=O)O)[C@@H]1c2ccc(nc2)OCCCCCc2ccc(cc2)C(=O)N2CCc3ccc1cc3C2 (single isomer, unassigned) [Compound 127]	0.3 nM	0.6 nM	0.4 nM	3.8 nM and 3.9 nM	–	–	–	–	–
Cc1c2ccc3c1nnn3CCCCCCc1ccc3c(c1)cc(n3C)C(=O)N1CCc3ccc(cc3C1)[C@@H]2[C@H](C)C(=O)O [Compound 34]	–	–	–	1.7 nM and 0.6 nM	3.6 nM	3.8 nM	189 nM	190 nM	–
O=C(O)CC1c2ccc3c(c2)CN(CC3)C(=O)c2ccc(cc2Cl)OCCCCCCn2nnc3cc1ccc32 (stereo not drawn) [Compound 305]	345 nM	748 nM	651 nM	< 0.1 nM	–	–	–	–	–
Cc1c2ccc3c1nnn3CCCCCc1cc(F)c(c(F)c1)C(=O)N1CCc3ccc(cc3C1)C2CC(=O)O (stereo not drawn) [Compound 263]	18.3 nM	–	20.4 nM	2.7 nM and 3 nM	–	–	–	–	–
Cc1c2ccc3c1nnn3CCCCCCc1ccc(cc1)C(=O)N1CCc3ccc(cc3C1)[C@H]2[C@H](C)C(=O)O [Compound 134]	22.6 nM	72.8 nM	80.5 nM	3.8 nM (2×) and 10.4 nM and 9.8 nM	56.5 nM	90.8 nM	203 nM	143 nM	20.2 nM
O=C(O)CC1c2ccc(nc2)OCCCCCOc2ccc(c(F)c2)C(=O)N2CCc3ccc1cc3C2 (stereo not drawn) [Compound 268]	505 nM	–	561 nM	68.1 nM and 70.7 nM	–	–	–	–	–
Cc1cc2cc(C)c1C(=O)N1CCc3ccc(cc3C1)C(CC(=O)O)c1ccc3c(c1)nnn3CCCCCCO2 (stereo not drawn) [Compound 293]	141 nM	–	208 nM	< 0.1 nM	–	–	–	–	–
Cc1cc2ccc1C(=O)N1CCc3ccc(cc3C1)C(CC(=O)O)c1cnc3c(nnn3CCCCCC2)c1C (stereo not drawn) [Compound 170]	28.3 nM	54.3 nM	50.1 nM	6.3 nM and 6.5 nM	–	–	–	–	20.4 nM
COc1cc2ccc1C(=O)N1CCc3ccc(cc3C1)[C@@H](CC(=O)O)c1cnc3c(nnn3CCCCC2)c1C [Compound 88]	–	–	–	1 nM and 1.1 nM	35.3 nM	40.4 nM	101 nM	88.5 nM	–
CC(C)(C(=O)O)C1c2ccc3c(c2)CN(CC3)C(=O)c2ccc(cc2)CCCCCCn2nnc3cc1ccc32 (stereo not drawn) [Compound 279]	10.8 nM	–	10.7 nM	2.3 nM and 2.2 nM (2×) and 2.1 nM	–	–	–	–	–
Cc1c2ccc3c1nnn3CCCCCOc1ccc(c(F)c1F)C(=O)N1CCc3ccc(cc3C1)C2CC(=O)O (stereo not drawn) [Compound 306]	68.1 nM	90.1 nM	134 nM	0.1 nM and < 0.1 nM	–	–	–	–	–
O=C(O)C[C@H]1c2cnc(nc2)OCC/C=C/Cc2c(F)c(F)c(c(F)c2F)C(=O)N2CCc3ccc1cc3C2 [Compound 35]	–	–	–	840 nM and 662 nM	> 1000 nM	–	–	> 10000 nM	–
Cc1c2ccc3c1nnn3CCCCCCc1ccc(cc1F)C(=O)N1CCc3ccc(cc3C1)C2CC(=O)O (stereo not drawn) [Compound 264]	3.7 nM	–	5.4 nM	2.7 nM and 2.9 nM	–	–	–	–	–
Cc1c2cnc3c1nnn3CCCC/C=C/Cc1ccc(cc1)C(=O)N1CCc3ccc(cc3C1)[C@@H]2CC(=O)O [Compound 353]	–	–	–	0.5 nM	16.8 nM	19.1 nM	109 nM	72.3 nM	–
Cc1cc2ccc1C(=O)N1CCc3ccc(cc3C1)C(CC(=O)O)c1ccc(nc1)OCCCCC2 (stereo not drawn) [Compound 154]	16.6 nM	35.8 nM	37.8 nM	3.3 nM and 3.5 nM	–	–	–	–	13.6 nM
C[C@@H](C(=O)O)[C@H]1c2ccc3c(c2)CN(CC3)C(=O)c2ccc(cc2)OCCCCCCn2nnc3cc1ccc32 [Compound 324]	6 nM	–	18.1 nM	0.4 nM	–	–	–	–	–
Cn1c2cc3cc(cnc31)CCCCCOc1ccc(cn1)C(CC(=O)O)c1ccc3c(c1)CN(CC3)C2=O (racemic) [Compound 158, 2-(33-methyl-2-oxo-15-oxa-1,7,17,33-tetrazahexacyclo[19.5.3.216,19.13,6.15,9.024,28]tritriaconta-3,5,7,9(32),16,18,21(29),22,24(28),30-decaen-20-yl)acetic Acid]	18.2 nM	400 nM	403 nM	3.6 nM and 3.2 nM	–	–	–	–	22.1 nM
Cc1c2ccc3c1nnn3CCCCCCOc1ccc(nc1)C(=O)N1CCc3ccc(cc3C1)C2CC(=O)O (stereo not drawn) [Compound 227]	517 nM	932 nM	1130 nM	2.1 nM	–	–	–	–	568 nM
C[C@@H](C(=O)O)[C@@H]1c2ccc(nc2)OCCCCCc2cc(F)c(c(F)c2)C(=O)N2CCc3ccc1cc3C2 [Compound 164]	16 nM	34 nM	32.6 nM	51.2 nM and 59.3 nM	–	–	–	–	20.3 nM
Cc1c2cnc3c1nnn3CCCCCc1cc(F)c(c(F)c1)C(=O)N1CCc3ccc(cc3C1)[C@H]2CC(=O)O [Compound 139]	0.2 nM	0.3 nM	0.2 nM	0.1 nM	–	–	–	–	–

SMILES	EC50 [1, 4]	EC50 ([2]; BEAS+, read-out: BEAS+ EC50)	EC50 [2, 5]	IC50 [3]	EC50 [1, 6]	EC50 [1, 7]	EC50 [2, 8]	EC50 [2, 9]	EC50 [1, 10]
CC(C)(C(=O)O)C1c2ccc3c(c2)CN(CC3)C(=O)c2ccc(cc2F)OCCCCCCn2nnc3cc1ccc32 (stereo not drawn) [Compound 288]	2.7 nM	–	34.3 nM	1.8 nM and 2.3 nM	–	–	–	–	–
O=C(O)CC1c2ccc(nc2)OCCCCCCOc2ccc(cc2)C(=O)N2CCc3ccc1cc3C2 (stereo not drawn) [Compound 319]	432 nM	–	1430 nM	99 nM and 106 nM	–	–	–	–	–
O=C(O)CC1c2cnc(nc2)OCCCCOc2ccc(cc2)C(=O)N2CCc3ccc1cc3C2 (stereo not drawn) [Compound 183]	–	–	–	642 nM and 571 nM	> 1000 nM	–	–	> 10000 nM	–
Cc1c2ccc3c1nnn3C/C=C/COCc1ccc(c(F)c1)C(=O)N1CCc3ccc(cc3C1)C2CC(=O)O (stereo not drawn) [Compound 386]	90.3 nM	105 nM	123 nM	1.9 nM and 2 nM	–	–	–	–	89 nM
Cc1c2cnc3c1nnn3CCCCCCc1ccc(cc1)C(=O)N1CCc3ccc(cc3C1)C2CC(=O)O (stereo not drawn) [Compound 216]	1.8 nM	28.2 nM	35.8 nM	2.1 nM and 2.3 nM	–	–	–	–	2.5 nM
Cc1c2ccc3c1nnn3CCCOCCc1ccc(c(F)c1)C(=O)N1CCc3ccc(cc3C1)[C@H]2CC(=O)O [Compound 357]	–	–	–	11.4 nM and 11 nM	> 1000 nM	969 nM	1710 nM	1940 nM	–
Cc1c2ccc3c1nnn3CCCCCCc1ccc(cc1)C(=O)N1CCc3ccc(cc3C1)[C@@H]2[C@H](C)C(=O)O [Compound 175]	53.3 nM	125 nM	104 nM	10.4 nM and 10.3 nM	–	–	–	–	53.7 nM
C[C@H](C(=O)O)[C@@H]1c2ccc(nc2)OCCCCCc2ccc(cc2)C(=O)N2CCc3ccc1cc3C2 [Compound 55]	–	–	–	215 nM and 226 nM and 220 nM and 201 nM	125 nM	147 nM	354 nM	482 nM	–
COc1cc2ccc1CCCCCn1nnc3c(C)c(cnc31)[C@@H](CC(=O)O)c1ccc3c(c1)CN(CC3)C2=O [Compound 86]	–	–	–	0.9 nM and 0.8 nM	18 nM	19.7 nM	25.7 nM	20.4 nM	–
Cc1c2ccc3c1nnn3CCCCCn1cc(c3ccccc31)C(=O)N1CCc3ccc(cc3C1)C2CC(=O)O (stereo not drawn) [Compound 372]	994 nM	861 nM	1630 nM	0.2 nM	–	–	–	–	1020 nM
Cc1c2ccc3c1nnn3CCCCCCOc1cnc(c(F)c1)C(=O)N1CCc3ccc(cc3C1)C2CC(=O)O (stereo not drawn) [Compound 217]	371 nM	301 nM	429 nM	1.9 nM and 2.1 nM	–	–	–	–	360 nM
O=C(O)C[C@@H]1c2ccc(nc2)OCCCCCc2ccc(cc2)C(=O)N2CCc3ccc1cc3C2 [Compound 173]	3.7 nM	13.1 nM	12.8 nM	12.5 nM and 12.4 nM	–	–	–	–	4.3 nM
C[C@H](C(=O)O)[C@H]1c2ccc3c(c2)CN(CC3)C(=O)c2ccc(cc2)OCCCCCCn2nnc3cc1ccc32 [Compound 323]	135 nM	–	386 nM	1.2 nM and 1.8 nM	–	–	–	–	–
C[C@H](C(=O)O)[C@@H]1c2ccc(nc2)OCCCCCc2cc(F)c(c(F)c2)C(=O)N2CCc3ccc1cc3C2 [Compound 162]	0.6 nM	–	0.8 nM	2.1 nM and 2 nM	–	–	–	–	–
Cn1c2cc3cc(ccc31)OCCCCCCn1nnc3cc(ccc31)C(CC(=O)O)c1ccc3c(c1)CN(CC3)C2=O (stereo not drawn) [Compound 310]	698 nM	9570 nM	9100 nM	0.3 nM and < 0.1 nM	–	–	–	–	–
Cc1cc2ccc1C(=O)N1CCc3ccc(cc3C1)[C@H]([C@H](C)C(=O)O)c1ccc3c(nnn3CCCOCCO2)c1C [Compound 370]	1480 nM	1710 nM	1640 nM	4.3 nM and 4.2 nM	–	–	–	–	1350 nM
O=C(O)CC1c2ccc3c(c2)CN(CC3)C(=O)c2ccc(cn2)OCCCCCCn2nnc3c(Cl)c1ccc32 (stereo not drawn) [Compound 214]	245 nM	241 nM	234 nM	2.3 nM and 2.1 nM	–	–	–	–	132 nM
Cc1c2ccc3c1nnn3CCCCCOc1ccc(c(F)c1)C(=O)N1CCc3ccc(cc3C1)C2CC(=O)O (stereo not drawn) [Compound 316]	141 nM	–	77.9 nM	1.6 nM and 0.9 nM	–	–	–	–	–
Cc1cc2cc3c1CCN(C3)C(=O)c1ccc(cc1)CCCCCn1nnc3c(C)c(cnc31)C2CC(=O)O (stereo not drawn) [Compound 105]	–	–	–	0.8 nM	3.9 nM	4.2 nM	9.1 nM	11.6 nM	–
